Test system: adult primary rat dorsal root ganglia (DRG)
Assay: In vitro chemotherapy-induced peripheral neuropathy in rat DRGs treated with cisplatin
Format: cell-based, Sprague Dawley rat
Details: 5 μM compound + 0.5 mM cisplatin, 4 days
Experimental: ACY-1083, obtained from MedChem Express, is a published HDAC6-selective inhibitor and was used as a benchmark. Blinded DMSO was used as an additional negative control. […] Nerve degeneration was evaluated by blebs per area as visualized by fluorescent imaging of beta tubulin staining. Axon area was also evaluated by fluorescent imaging of beta tubulin staining.
Select exemplary compounds were evaluated for prevention of nerve degeneration in an in vitro chemotherapy induced neuropathy model using adult primary rat dorsal root ganglia (DRG). Compounds were blinded for treatment and analysis, using DMSO as a vehicle control. […] Blebs (fragments) signify the beginning of the nerve degeneration process. Total axon area is related to neuron survival and is a more general measure of neuroprotection.
Dissociation solution (100 mL of HBSS with 2 mL of HEPES (1 M, pH 7.25)) was prepared and precooled to 4° C. on study day 1. A 24 well cell culture plate was coated with ECL. Each well was coated with 0.3 mL of ECL solution (1:25 in sterile PBS) and incubated overnight at 37° C. ECL solution was aspirated and the well plate was rinsed with neurobasal medium on study day 2. […]

Structure (SMILES)	Axon area compared to vehicle in the presence of cisplatin (FIG. 3B)	Nerve degeneration: blebs per area compared to vehicle in the presence of cisplatin (FIG. 3A)
O=C(NO)c1cc(F)c2c(c1)CCN1CCC[C@@H]21 (single isomer, unassigned) [compound 79]	increased axon area	–
O=C(NO)c1ccc(CN2C[C@H]3CC[C@@H]2CO3)c(F)c1 (single isomer, unassigned) [compound 173]	–	decreased blebs per area
